Source: patent US7453010B2, “Phenylcyclohexylpropanolamine derivatives, preparation and therapeutic application thereof” (Sanofi Aventis, priority 2002, dated 2008)

| melting point | Structure (SMILES) |
| --- | --- |
| 85 to 90 °C | CS(=O)(=O)Nc1cc(OC[C@@H](O)CN[C@H]2CC[C@H](c3ccc(O)cc3)CC2)ccc1O [Compound 1, trans-N-{2-Hydroxy-5-[((2S)-2-hydroxy-3-{[4-(4-hydroxyphenyl)cyclohexyl]amino}propyl)oxy]phenyl}methanesulfonamide] |
| 60 to 70 °C | CCOC(=O)COc1ccc([C@H]2CC[C@H](NC[C@H](O)COc3ccc(O)c(NS(C)(=O)=O)c3)CC2)cc1 [Compound 2, Ethyl trans-(4-{4-[((2S)-2-hydroxy-3-{4-hydroxy-3-[(methylsulfonyl)amino]phenoxy}propyl)amino]cyclohexyl}phenoxy)acetate] |
